Data taken from US20260125428A1, “SYNTHETIC TRIPLEX PEPTIDE NUCLEIC ACID-BASED INHIBITORS FOR CANCER THERAPY” (University of Connecticut, priority 2022, published 2026).

Experiments:
U2932 cells [1] = experiment: Viability of U2932 cells, combination of PNAs with HDAC inhibitors and other drugs
Protocol: FIGS. 9A-D show cell viability after treatment with indicated PNAs. (9A) The viability of U2932 cells after treatment with γPNA1-NLS (8 μM), romidepsin (10 nM) and combination of γPNA1-NLS with romidepsin over 96 hours. (9B) The viability of U2932 cells after treatment with γPNA2-NLS (8 μM), romidepsin (10 nM) and combination of γPNA2-NLS with romidepsin over 96 hours. (9C) Fold change in C-Myc levels after combination of γPNA1-NLS and γPNA2-NLS with romidepsin in comparison to only romidepsin treatment. (9D) Fold change in BCL2 levels after combination of γPNA1-NLS and γPNA2-NLS with romidepsin in comparison to only romidepsin treatment.
FIGS. 10A-F show the viability of U2932 cells after indicated treatment. (10A) Viability of U2932 cells after treatment with γPNA2-NLS […], vorinostat (2.5 μM) and combination of γPNA2-NLS with vorinostat over 96 hours. (10B) The viability of U2932 cells after treatment with γPNA2-NLS (8 μM), valproic acid (2 mM) and combination of γPNA2-NLS with valproic acid over 96 hours. […] (10E) The viability of U2932 cells after treatment with CHOP (cyclophosphamide, vincristine, doxorubicin, prednisone) and combination of γPNA2-NLS with CHOP at different doses.
Cell viability: U2932 and Raji cells were seeded in 96 well plates at 20,000 cells/well. PNAs were added to the media at different concentrations (1, 2, 4, and 8 μM). […] The cell viability was then measured via trypan blue staining on day 1, 2, and 4.

U2932 cells [2] = experiment: Cell viability (trypan blue) of U2932 cells; assay type: cell-based; conditions: 24 h, different doses
Protocol: (§1) FIGS. 4A-F show effect of cellular uptake of indicated PNAs. (4A) Expression levels of C-Myc oncogene in U2932 (DLBCL), Raji and Daudi cells (Burkitt's lymphoma) in comparison to the peripheral blood mononuclear cells (PBMC). (4B) Cell viability of U2932 cells after 24 h treatment with indicated PNAs at different doses. (4C) Cell viability of Raji cells after 24 h treatment with indicated PNAs at different doses. (4D) Gene expression levels of C-Myc oncogene and its downstream targets including MCL1 and EZH2 in U2932 cells after 24 h of treatment with γPNA1-NLS, γPNA2-NLS, and ScrγPNA4-NLS at 8 μM. (4E) Gene expression levels of C-Myc oncogene and its downstream targets including BCL2 and EZH2 in Raji cells after 24 h of treatment with γPNA1-NLS, γPNA2-NLS, and ScrγPNA4-NLS at 8 μM. (4F) Gene expression levels of C-Myc in U2932 cells after 24 h treatment with γPNA2-NLS and ScrγPNA4-NLS at indicated doses.

C-Myc oncogene [3] = experiment: Gene expression (RT-PCR) in U2932 cells after combination treatment; assay type: cell-based, human
Protocol: (§2) Gene expression: The levels of mRNA were measured in different cell lines using real time-polymerase chain reaction (RT-PCR). Both untreated (PBMC, U2932, Raji, Daudi) and PNA treated lymphoma cells were collected at the end of treatment. Total RNA was extracted using Qiagen RNeasy® kit (USA) and concentration was measured by Nanodrop™. cDNA was synthesized using high capacity cDNA reverse transcription kit (Applied Biosystem, USA) following the recommended cycling conditions. Taqman® gene expression assay for C-Myc, EZH2, BCL2, MCL1 and GAPDH were used to amplify the respective mRNAs using the specified cycling conditions in the CFX Real-Time PCR detection system. GAPDH was used as the reference gene and fold change in mRNA expression was obtained by normalizing against the untreated cells or cells treated with HDAC inhibitors.

C-Myc oncogene [4] = experiment: Gene expression (RT-PCR) of C-Myc and downstream targets in U2932 cells; assay type: cell-based, human; conditions: 24 h
Protocol: as §1, §2

C-Myc oncogene [5] = experiment: Gene expression (RT-PCR) of C-Myc and downstream targets in Raji cells; assay type: cell-based, human; conditions: 24 h, 8 μM
Protocol: as §1, §2

Raji cells = experiment: Cell viability (trypan blue) of Raji cells; assay type: cell-based; conditions: 24 h, different doses
Protocol: as §1

U2932 derived xenografts = experiment: Tumor growth and survival study in U2932 derived xenograft mice; assay type: in vivo; conditions: 5 mg/kg systemic on day 1, 4, 7, and 10; for survival of the mice: saline 21 days
Protocol: FIGS. 7A-C show survival data of mice after systemic administration of indicated PNAs. (7A) Graph representing the tumor volume of U2932 xenografts after systemic treatment with indicated PNAs (n≥4 mice per group). PNAs were administered systemically on day 1, 4, 7, and 10 (n≥4 mice per group). (7B) The survival of U2932 derived xenograft mice after treatment with γPNA2-NLS, γPNA3, and ScrγPNA4-NLS at 5 mg/kg dose in comparison to the control (saline) mice. (7C) Complete blood count analysis of mice from different groups at the end of the study. RBC: red blood cells; WBC: white blood cells; HGB: hemoglobin; PLT: platelets; HCT: hematocrit; MCH: […]. (D) Blood chemistry analysis of mice from different groups at the end of the study. ALT: alanine transaminase; AST: aspartate transaminase; BUN: blood urea nitrogen; LDH: Lactate dehydrogenase. Results are presented as mean±SEM (n≥4).
In vivo studies in xenograft mice model: U2932 derived xenografts were generated by implanting 10 million cells subcutaneously on the lower right flank of the female NSG mice (NOD.Cg-Prkdc^scidIl2rg^tm1Wj1/SzJ, #005557, Jackson Laboratories, USA) of 5-6 weeks. The mice were maintained in the animal care facility at the University of Connecticut following the required Institutional Animal Care and Use Committee guidelines (IACUC). Mice developed palpable tumors after 3-4 weeks of implantation. Tumor dimensions including length (l), breadth (b), and height (h) were measured using a caliper and volume was calculated using the formula for ellipsoid (0.5236×lbh).
Survival study: Mice bearing tumors about 100-150 mm^3 were divided into 4 groups. Mice were treated with either γPNA2-NLS, γPNA3, Scr-γPNA4-NLS, or saline. PNAs were administered at 5 mg/kg dose on day 1, 4, 7, and 10. The change in tumor volume was measured every day. Mice were euthanized when the tumor volume reached 2000 mm^3. Blood was collected via cardiac punter in 1.5 ml tubes containing 0.5 M EDTA. Organs including tumor, liver, kidney, spleen, heart and lung were collected. Tumor fraction and all organs were kept in 10% formalin and submitted for histology. The complete blood count analysis was performed on the collected blood samples using Sysmex CBC analyzer. Plasma was separated from the blood samples and submitted to Antech diagnostic for blood chemistry analysis to quantify the levels of alanine transaminase, lactate dehydrogenase, aspartate transaminase and blood urea nitrogen.

For “JJJTJJJT-OOO-TCCCTCCCTCCGTTCTTTTTCCC-K-OOO-VKRKKKP (gamma PNA tail clamp; linkers; NLS peptide; gammaPNA to target C-Myc Exon 1; misc_feature 1 JJJTJJJT-linker- is covalently linked to the backbone, wherein J is pseudoisocytosine and the linker is 11-Amino-3,6,9-Trioxaundecanoic Acid (DCHA), represented as -OOO-; misc_feature 23 -K-linker-SEQ ID NO: 5 is covalently linked to the backbone, wherein the linker is 11-Amino-3,6,9-Trioxaundecanoic Acid (DCHA), represented as -OOO-; modified_base 1) [γPNA2-NLS]”, the “viability, combination with venetoclax” value (U2932 cells [1]; U2932 cells, over time) was “significant reduction in viability”, the “combination effect with romidepsin on viability (in words)” value (U2932 cells [1]; U2932 cells, romidepsin 10 nM, PNA 8 uM) was “synergistic activity” and the “viability, combination with CHOP” value (U2932 cells [1]; U2932 cells, trypan blue, 24 h and 48 h) was “significant reduction in viability”. For the same substance, the “viability, combination with valproic acid in comparison to the individual treatments” value (U2932 cells [1]; U2932 cells, valproic acid 2 mM, PNA 8 μM, over 96 hours) was “significant decrease in viability”, the “combination effect with vorinostat on viability” value (U2932 cells [1]; U2932 cells, vorinostat 2.5 μM, over 96 hours) was “synergistic activity” and the “decrease in U2932 cell viability, combination with romidepsin” value (U2932 cells [1]; romidepsin 10 nM pretreatment 24 h, PNA 8 uM, day 4) was “approximately 80%”. The “viability of U2932 cells” value (U2932 cells [2]) was “significant decrease in the viability”, the “knockdown of c-myc, combination with valproic acid” value (C-Myc oncogene [3]; 96 h, valproic acid 2 mM) was “higher knockdown of c-myc” and the “knockdown of c-myc, combination with vorinostat” value (C-Myc oncogene [3]; 96 h, vorinostat 2.5 uM, PNA 8 μM) was “higher knockdown of c-myc”. The “BCL-2 levels, combination with romidepsin in comparison to only romidepsin” value (C-Myc oncogene [3]; day 4) was “reduced levels”, the “decrease in C-Myc levels, combination with romidepsin compared with only romidepsin” value (C-Myc oncogene [3]; day 4, PNA 8 uM, romidepsin 10 nM) was over 90% and the “dose of maximum knockdown of C-Myc” value (C-Myc oncogene [4]; different doses) was 8 µM. For the same substance, the “decrease in the levels of C-Myc” value (C-Myc oncogene [4]; RT-PCR, 8 μM) was over 50%, the “levels of downstream targets MCL1 and EZH2” value (C-Myc oncogene [4]; RT-PCR, 8 μM) was “significant decrease in the levels of MCL1 and EZH2” and the “decrease in the levels of C-Myc” value (C-Myc oncogene [5]) was over 50%. The “levels of downstream targets BCL2 and EZH2” value (C-Myc oncogene [5]) was “downregulation of BCL2 and EZH2”, the “viability of Raji cells” value (Raji cells) was “significant decrease in the viability” and the “efficacy on tumor growth in comparison to γPNA3” value (U2932 derived xenografts) was “superior efficacy”. For the same substance, the “tumor growth in comparison to the control groups” value (U2932 derived xenografts) was “significantly reduced tumor growth” and the “survival of the mice” value (U2932 derived xenografts) was 29 days.

In the case of “X5CCTCCCTTCTTCCTTCTCCCTTGX2 (gamma PNA; NLS peptide; scramble gammaPNA; misc_feature 1 TJJJJJJTJ-linker- is covalently linked to the backbone, wherein J is pseudoisocytosine and the linker is 11-Amino-3,6,9-Trioxaundecanoic Acid (DCHA), represented as -OOO-; misc_feature 23 -K-linker-SEQ ID NO: 5 is covalently linked to the backbone, wherein the linker is 11-Amino-3,6,9-Trioxaundecanoic Acid (DCHA), represented as -OOO-; modified_base 1..23 OTHER; p) [ScrγPNA4-NLS, reference compound]”, the “viability of U2932 cells” value (U2932 cells [2]) is reported as “no impact on the viability”, the “knockdown of C-Myc at different doses (in words)” value (C-Myc oncogene [4]; different doses) is reported as “no activity” and the “levels of downstream targets MCL1 and EZH2” value (C-Myc oncogene [4]; RT-PCR, 8 μM) is reported as “no change in their levels”. For the same substance, the “levels of downstream targets BCL2 and EZH2” value (C-Myc oncogene [5]) was “no change in their levels”, the “viability of Raji cells” value (Raji cells) was “no impact on the viability” and the “survival of the mice” value (U2932 derived xenografts) was 19.5 days.
